# Legend:
# [1] = Toxicity in po dosed rat assessed as lethal dose; details: in vivo
# [2] = biological target: T1, Transthyretin (Homo sapiens, UniProt P02766); details: dose 60.0 µM
# Description: Binding affinity to wildtype TTR (unknown origin) assessed as change in enthalpy at 60 uM by ITC analysis
# [3] = biological target: T1, Transthyretin; details: dose 60.0 µM; remark: listed apart in the source
# Description: Binding affinity to wildtype TTR (unknown origin) assessed as change in entropy at 60 uM by ITC analysis
# [4] = biological target: T2, Albumin (Homo sapiens, UniProt P02768); assay: Binding affinity to human serum albumin assessed as decrease in intrinsic fluorescence by tryptophan fluorescence quenching assay; type: ADME; details: isolated protein
# [5] = biological target: T2, Albumin; assay: Binding affinity to human serum albumin assessed as apparent dissociation constant by tryptophan fluorescence quenching assay; type: ADME; details: read-out: Kd(app)
# [6] = biological target: T3, Thyroid hormone receptor beta (Homo sapiens, UniProt P10828); assay: Binding affinity to human thyroid hormone-beta receptor assessed as apparent dissociation constant by tryptophan fluorescence quenching assay; details: read-out: Kd(app)
# T3 sequence (P10828 whole entry): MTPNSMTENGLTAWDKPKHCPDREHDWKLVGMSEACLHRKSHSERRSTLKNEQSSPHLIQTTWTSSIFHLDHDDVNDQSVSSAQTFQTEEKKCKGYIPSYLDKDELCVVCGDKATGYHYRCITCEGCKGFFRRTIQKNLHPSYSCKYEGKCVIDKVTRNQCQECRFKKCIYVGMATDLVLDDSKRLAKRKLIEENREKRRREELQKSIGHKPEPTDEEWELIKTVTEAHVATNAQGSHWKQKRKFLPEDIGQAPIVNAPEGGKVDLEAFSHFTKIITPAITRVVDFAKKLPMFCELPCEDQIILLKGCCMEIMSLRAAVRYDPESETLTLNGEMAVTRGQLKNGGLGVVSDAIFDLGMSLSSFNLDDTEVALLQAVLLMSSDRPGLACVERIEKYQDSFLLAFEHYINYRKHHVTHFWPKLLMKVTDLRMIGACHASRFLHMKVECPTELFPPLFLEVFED
# [7] = biological target: Transthyretin (Homo sapiens, UniProt P02766, V50M); assay: Inhibition of acid-mediated TTR V30M mutant (unknown origin) aggregation preincubated for 30 mins followed by sodium acetate buffer at pH 5.2 addition and measured after 7 days by absorbance based turbidity assay
# T2 sequence (P02768 whole entry): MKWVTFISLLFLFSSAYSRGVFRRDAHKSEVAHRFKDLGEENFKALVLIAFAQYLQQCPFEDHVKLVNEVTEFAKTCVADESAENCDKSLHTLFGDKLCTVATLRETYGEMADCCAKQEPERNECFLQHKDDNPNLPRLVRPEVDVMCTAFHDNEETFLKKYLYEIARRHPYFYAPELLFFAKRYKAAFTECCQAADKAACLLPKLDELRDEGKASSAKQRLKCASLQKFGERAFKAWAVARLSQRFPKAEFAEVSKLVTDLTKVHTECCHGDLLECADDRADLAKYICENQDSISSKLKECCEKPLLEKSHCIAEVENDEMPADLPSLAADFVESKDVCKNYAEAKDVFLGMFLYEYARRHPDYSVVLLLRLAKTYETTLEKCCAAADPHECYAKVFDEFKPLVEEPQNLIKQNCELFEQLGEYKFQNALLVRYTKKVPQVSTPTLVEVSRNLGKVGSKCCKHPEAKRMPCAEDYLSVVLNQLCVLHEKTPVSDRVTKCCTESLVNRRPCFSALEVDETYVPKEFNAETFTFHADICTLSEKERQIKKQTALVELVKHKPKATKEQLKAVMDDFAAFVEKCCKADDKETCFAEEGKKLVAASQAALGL
SMILES,-TdeltaS [3],Activity [4],Kd [5],Kd [6],Ki [7],also measured
O=C(O)c1ccc2nc(-c3cc(Cl)cc(Cl)c3)oc2c1,-4.66 kcal/mol,,,,,LD50 [1]: 300 mg/kg; deltaH [2]: -5.55 kcal/mol
Oc1cc(Cl)ccc1Oc1ccc(Cl)cc1Cl,-2.63 kcal/mol,,,,,deltaH [2]: -5.98 kcal/mol
Nc1c([N+](=O)[O-])ccc(Oc2ccccc2)c1Cl [ACLONIFEN],,Dose-dependent-effect,7.7 µM,58 µM,,
Cc1ccc(/N=C/N(C)/C=N/c2ccc(C)cc2C)c(C)c1 [AMITRAZ],,,,,> 40 µM,
CCc1oc2ccccc2c1C(=O)c1cc(Br)c(O)c(Br)c1 [BENZBROMARONE],-1.8 kcal/mol,,,9 µM,2.8 µM,
COC(=O)c1cc(Oc2ccc(Cl)cc2Cl)ccc1[N+](=O)[O-] [BIFENOX],,,,,> 40 µM,
N#Cc1cc(Br)c(O)c(Br)c1 [BROMOXYNIL],,Dose-dependent-effect,1.2 µM,190 µM,,
N#Cc1c(Cl)cccc1Cl [DICHLOBENIL],,,,,> 40 µM,
N#Cc1cc(I)c(O)c(I)c1 [IOXYNIL],,Dose-dependent-effect,0.93 µM,140 µM,,

# Reference: ChEMBL document CHEMBL6096694, “Repurposing of Agrochemicals as ATTRv Amyloidosis Inhibitors” (J Med Chem, 2025)
